PubChem BioAssay AID248 (DTP/NCI, 2004)
Several values for one entry are separate records, joined by “and”; a condition that tells them apart may be missing. Equal entries are not always repeated. Toxic doses and inconclusive results are not listed.

Test system: L1210 leukemia ip in BDF1 mice, survival T/C
Experiment: NCI In Vivo Anticancer Drug Screen. Data for tumor model L1210 Leukemia (intraperitoneal) in B6D2F1 (BDF1) mice
Details: endpoint: mean survival time, higher = longer survival
Outline: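 Read-out is survival time, reported as the treated-group measurement over the vehicle-control measurement.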

[1] = dose: 100.0 mg/kg/injection, schedule: Q01DX009 (ip), vehicle: Klucel (hydroxypropylcellulose) (HPC)
[2] = dose: 200.0 mg/kg/injection, schedule: Q01DX009 (ip), vehicle: Klucel (hydroxypropylcellulose) (HPC)
[3] = dose: 400.0 mg/kg/injection, schedule: Q01DX009 (ip), vehicle: Klucel (hydroxypropylcellulose) (HPC)
[4] = dose: 100.0 mg/kg/injection, schedule: Q01DX009 (ip), vehicle: saline
[5] = dose: 200.0 mg/kg/injection, schedule: Q01DX009 (ip), vehicle: saline
[6] = dose: 50.0 mg/kg/injection, schedule: Q01DX001 (ip), vehicle: carboxymethylcellulose (CMC)
[7] = dose: 100.0 mg/kg/injection, schedule: Q01DX001 (ip), vehicle: carboxymethylcellulose (CMC)
[8] = dose: 200.0 mg/kg/injection, schedule: Q01DX001 (ip), vehicle: carboxymethylcellulose (CMC)
[9] = dose: 400.0 mg/kg/injection, schedule: Q01DX001 (ip), vehicle: carboxymethylcellulose (CMC)
[10] = dose: 100.0 mg/kg/injection, schedule: Q01DX001 (ip), vehicle: saline
[11] = dose: 200.0 mg/kg/injection, schedule: Q01DX001 (ip), vehicle: saline
[12] = dose: 100.0 mg/kg/injection, schedule: Q04DX003 (ip), vehicle: saline
[13] = dose: 200.0 mg/kg/injection, schedule: Q04DX003 (ip), vehicle: saline
[14] = dose: 100.0 mg/kg/injection, schedule: Q04DX003 (ip), vehicle: Klucel (hydroxypropylcellulose) (HPC)
[15] = dose: 200.0 mg/kg/injection, schedule: Q04DX003 (ip), vehicle: Klucel (hydroxypropylcellulose) (HPC)
[16] = dose: 400.0 mg/kg/injection, schedule: Q04DX003 (ip), vehicle: Klucel (hydroxypropylcellulose) (HPC)
[17] = dose: 100.0 mg/kg/injection, schedule: Q04DX002 (ip), vehicle: Klucel (hydroxypropylcellulose) (HPC)
[18] = dose: 200.0 mg/kg/injection, schedule: Q04DX002 (ip), vehicle: Klucel (hydroxypropylcellulose) (HPC)
[19] = dose: 75.0 mg/kg/injection, schedule: Q01DX001 (ip), vehicle: saline
[20] = dose: 150.0 mg/kg/injection, schedule: Q01DX001 (ip), vehicle: saline
[21] = dose: 400.0 mg/kg/injection, schedule: Q04DX002 (ip), vehicle: Klucel (hydroxypropylcellulose) (HPC)
[22] = dose: 100.0 mg/kg/injection, schedule: Q01DX009 (ip), vehicle: saline with Tween-80
[23] = dose: 200.0 mg/kg/injection, schedule: Q01DX009 (ip), vehicle: saline with Tween-80
[24] = dose: 400.0 mg/kg/injection, schedule: Q01DX009 (ip), vehicle: saline with Tween-80

O=C(Nc1ccc(Cl)c(Cl)c1)N(CCO)Cc1ccccc1
T/C [1]: 90 % of control
T/C [2]: 92 % of control
T/C [3]: 97 % of control

CCOC(=O)C(=O)CC1=NC2CCCCC2N(C)C1=O (stereo not given)
T/C (dose: 50.0 mg/kg/injection, schedule: Q01DX009 (ip), vehicle: saline): 93 % of control
T/C [4]: 90 % of control
T/C [5]: 90 % of control

O=C1/C(=C\C=C\c2ccccc2)CCCC/C1=C\C=C\c1ccccc1
T/C [6]: 97 % of control
T/C [7]: 90 % of control
T/C [8]: 97 % of control
T/C [9]: 92 % of control

CC(=O)Oc1ccc(Cl)cc1C=O
T/C [10]: 105 % of control
T/C [11]: 103 % of control

CN1CCN(c2nc3nnnn3c3ccccc23)CC1
T/C (dose: 50.0 mg/kg/injection, schedule: Q04DX003 (ip), vehicle: saline): 101 % of control
T/C [12]: 104 % of control
T/C [13]: 101 % of control

CCCCCCCCCCCCCCCCCBr
T/C [6]: 110 % of control
T/C [7]: 95 % of control
T/C [8]: 93 % of control
T/C [9]: 95 % of control

CCCCC(NC(C)=O)C(=O)O (stereo not given)
T/C [1]: 96 % of control and 100 % of control
T/C [14]: 90 % of control
T/C [2]: 86 % of control and 97 % of control
T/C [15]: 97 % of control
T/C [3]: 88 % of control
T/C [16]: 90 % of control

C[N+]1(C)CCS(=O)(=O)CC1
T/C [17]: 104 % of control
T/C [18]: 110 % of control

CCOc1ccc(C(=O)C(C)CN2CCN(C)CC2)cc1 (stereo not given)
T/C [10]: 98 % of control

O=C1CCCC1CNCc1ccccc1 (stereo not given)
T/C [19]: 103 % of control
T/C [20]: 100 % of control

N#Cc1ccc(NC(=O)COc2cccc(Cl)c2)cc1
T/C (dose: 37.5 mg/kg/injection, schedule: Q01DX001 (ip), vehicle: saline with Tween-80): 95 % of control
T/C (dose: 150.0 mg/kg/injection, schedule: Q01DX001 (ip), vehicle: saline with Tween-80): 92 % of control

CCOC(=O)/C(C#N)=C/NN
T/C (dose: 6.25 mg/kg/injection, schedule: Q04DX003 (ip), vehicle: saline): 100 % of control
T/C (dose: 12.5 mg/kg/injection, schedule: Q04DX003 (ip), vehicle: saline): 96 % of control
T/C (dose: 25.0 mg/kg/injection, schedule: Q04DX003 (ip), vehicle: saline): 96 % of control

CN1CCC(CSC(=O)C(O)(c2ccccc2)C2CCCCC2)C1 (stereo not given)
T/C [19]: 97 % of control

CCS(=O)(=O)N1CC(C)OC(C)C1 (stereo not given)
T/C [17]: 96 % of control
T/C [18]: 103 % of control
T/C [21]: 107 % of control

NC(CSc1ccc(Cl)cc1)C(=O)O (stereo not given)
T/C (dose: 100.0 mg/kg/injection, schedule: Q04DX003 (sc), vehicle: steriod suspending solution): 86 % of control
T/C (dose: 200.0 mg/kg/injection, schedule: Q04DX003 (sc), vehicle: steriod suspending solution): 86 % of control
T/C (dose: 400.0 mg/kg/injection, schedule: Q04DX003 (sc), vehicle: steriod suspending solution): 92 % of control

CC(=O)CC(=O)Nc1ccc([N+](=O)[O-])cc1
T/C [22]: 97 % of control
T/C [12]: 96 % of control
T/C [23]: 111 % of control
T/C [13]: 96 % of control
T/C [24]: 102 % of control
T/C (dose: 400.0 mg/kg/injection, schedule: Q04DX003 (ip), vehicle: saline): 92 % of control

NC1c2ccccc2CC1C(=O)O (stereo not given)
T/C [10]: 95 % of control
T/C [11]: 97 % of control

Nc1ccn(C2OC(COC(c3ccccc3)(c3ccccc3)c3ccccc3)C(O)C2O)c(=O)n1 (stereo not given)
T/C (dose: 100.0 mg/kg/injection, schedule: Q01DX005 (ip), vehicle: saline): 101 % of control
T/C (dose: 200.0 mg/kg/injection, schedule: Q01DX005 (ip), vehicle: saline): 112 % of control

C=CCN1C(=O)C(CCCCCCCCCCCC)C(=O)NC1=S (stereo not given)
T/C (dose: 75.0 mg/kg/injection, schedule: Q01DX001 (ip), vehicle: other): 101 % of control
T/C (dose: 150.0 mg/kg/injection, schedule: Q01DX001 (ip), vehicle: other): 95 % of control
T/C (dose: 300.0 mg/kg/injection, schedule: Q01DX001 (ip), vehicle: other): 90 % of control

O=C(Nc1ccc(F)cc1)OCCOc1ccc([N+](=O)[O-])cc1
T/C [1]: 96 % of control
T/C [2]: 107 % of control
T/C [3]: 93 % of control

O=C(Nc1cccc(Cl)c1Cl)C(Cl)(Cl)Cl
T/C [17]: 100 % of control
T/C [18]: 104 % of control
T/C [21]: 88 % of control

CCCCOP(=O)(N1CC1C)N1CC1C (stereo not given)
T/C (dose: 6.25 mg/kg/injection, schedule: Q04DX003 (ip), vehicle: acetone): 109 % of control
T/C (dose: 12.5 mg/kg/injection, schedule: Q04DX003 (ip), vehicle: acetone): 115 % of control
T/C (dose: 25.0 mg/kg/injection, schedule: Q01DX001 (ip), vehicle: saline): 123 % of control
T/C (dose: 25.0 mg/kg/injection, schedule: Q04DX003 (ip), vehicle: acetone): 153 % of control and 168 % of control
T/C (dose: 37.5 mg/kg/injection, schedule: Q04DX003 (ip), vehicle: acetone): 163 % of control
T/C (dose: 50.0 mg/kg/injection, schedule: Q01DX001 (ip), vehicle: saline): 164 % of control
T/C (dose: 66.0 mg/kg/injection, schedule: Q01DX001 (ip), vehicle: acetone): 158 % of control
T/C (dose: 75.0 mg/kg/injection, schedule: Q04DX003 (ip), vehicle: acetone): 91 % of control
T/C (dose: 100.0 mg/kg/injection, schedule: Q01DX001 (ip), vehicle: acetone): 169 % of control
T/C [10]: 159 % of control and 192 % of control
T/C (dose: 150.0 mg/kg/injection, schedule: Q01DX001 (ip), vehicle: acetone): 189 % of control
T/C [20]: 168 % of control

CN(C)c1ccc(-c2cccc[n+]2C)cc1
T/C (dose: 1.56 mg/kg/injection, schedule: Q01DX009 (ip), vehicle: saline): 104 % of control
T/C (dose: 3.13 mg/kg/injection, schedule: Q01DX009 (ip), vehicle: saline): 103 % of control
T/C (dose: 6.25 mg/kg/injection, schedule: Q01DX009 (ip), vehicle: saline): 104 % of control

Cn1c(C(N)=O)cc(=O)n1-c1ccc([N+](=O)[O-])cc1
T/C [14]: 101 % of control
T/C [15]: 97 % of control
T/C [16]: 101 % of control

COC(=O)C1CC(O)CC(C(=O)OC)O1 (stereo not given)
T/C [19]: 109 % of control
T/C [20]: 93 % of control

C=C1C2C3CCC(C3)C2C(O)C2C3CCC(C3)C12 (stereo not given)
T/C (dose: 50.0 mg/kg/injection, schedule: Q01DX009 (ip), vehicle: saline with Tween-80): 96 % of control
T/C [22]: 93 % of control
T/C [23]: 93 % of control

CCc1cccc2c1C(=O)OC2=O
T/C [4]: 94 % of control
T/C [5]: 91 % of control

NC(=O)c1[nH]cnc1/N=N/N(CCO)CCO
T/C (dose: 50.0 mg/kg/injection, schedule: Q01DX001 (ip), vehicle: water): 102 % of control
T/C (dose: 50.0 mg/kg/injection, schedule: Q04DX003 (ip), vehicle: water): 100 % of control
T/C (dose: 100.0 mg/kg/injection, schedule: Q01DX001 (ip), vehicle: water): 97 % of control
T/C [22]: 105 % of control
T/C (dose: 100.0 mg/kg/injection, schedule: Q04DX003 (ip), vehicle: saline with Tween-80): 101 % of control
T/C (dose: 100.0 mg/kg/injection, schedule: Q04DX003 (ip), vehicle: water): 101 % of control
T/C (dose: 200.0 mg/kg/injection, schedule: Q01DX001 (ip), vehicle: water): 103 % of control
T/C [23]: 105 % of control
T/C (dose: 200.0 mg/kg/injection, schedule: Q04DX003 (ip), vehicle: saline with Tween-80): 101 % of control
T/C (dose: 200.0 mg/kg/injection, schedule: Q04DX003 (ip), vehicle: water): 100 % of control
T/C (dose: 400.0 mg/kg/injection, schedule: Q01DX001 (ip), vehicle: water): 101 % of control
T/C [24]: 100 % of control
T/C (dose: 400.0 mg/kg/injection, schedule: Q04DX003 (ip), vehicle: saline with Tween-80): 98 % of control
T/C (dose: 400.0 mg/kg/injection, schedule: Q04DX003 (ip), vehicle: water): 101 % of control
